The text below walks through data of US20220089646A1 (THE UNIVERSITY OF QUEENSLAND, priority 2019, published 2022).

Molecules are shown by their SMILES. *1 amine or outer side, *2 acyl side, *3 side chain or, on linkers, in order; H or OH if unused. Where a SMILES comes first, the peptide text is derived from it. Bridges are numbered along the chain shown (N, C = ends). [ ]: non-standard residue; d: D form. NHCH2CMe2S = CC(C)(CN[*:1])S[*:2]

One data set can be described thus: Stability in cAMP buffer. In kind it is physicochemical. Particulars: over 60 minutes. The source says:
Select compounds were also screened for stability in cAMP buffer, to assess whether they degrade spontaneously in the cell assay environment, in the absence of cellular metabolic processes.

Data set [1] concerns the target T1, KOP (Homo sapiens, UniProt P41145). Briefly: In vitro cAMP activity at KOP (Table 10). The format is cell-based. To be noted: cAMP inhibition, four-parameter regression, normalised to U50488H. On the procedure:
(§1) The CP series compounds were assayed as follows: The assay was performed using a 96 well ½ area plate. The different cAMP standard solutions (3 μL/well) were plated in duplicate. The different concentrations of drug (3 μL/well), and control solutions (3 μL/well) were plated in triplicate. Following this, the acceptor bead mixture (3 μL/well) was added to the respective sets—either cAMP standard curve or the treatment. This was covered and incubated on the orbital shaker for 60 minutes at 37° C. Then, the donor bead mixture (10 μL/well) was added to each well. This was incubated at room temperature overnight on the orbital shaker.
(§2) For DP-11-06 the assay was carried out in the same way as for the CP compounds except it was incubated for 30 mins at 37° C.
(§3) For the CP series compounds and DP-11-06, the Ensight® Multimode Plate Reader was used to quantify the fluorescence units of each plate. Before reading, each plate was centrifuged at 280 g for 30 seconds. Using GraphPad Prism7® Software, cAMP concentrations were determined by fit spline/LOWESS analysis. The cAMP standard curve was used for interpolation at this point. The cAMP concentrations were then normalized to the highest cAMP concentration recorded and analyzed by one-way ANOVA for multiple comparisons. The IC50 for each compound was then calculated using GraphPad Prism7® with non-linear regression analysis using four parameter curve fitting.
(§4) The results shown in Table 10 utilized rat plasma. • Note that DP-7-11 and CP5 represent the same compound, and DP-7-12 and CP6 are the same compound. In this regard, a different regression analysis method was adopted on the above cAMP experiments. Particularly, a new non-linear regression (four-parameter) was adopted to better account for hill slope, thereby improving the regression fit.
Target sequence in this assay (P41145 whole entry): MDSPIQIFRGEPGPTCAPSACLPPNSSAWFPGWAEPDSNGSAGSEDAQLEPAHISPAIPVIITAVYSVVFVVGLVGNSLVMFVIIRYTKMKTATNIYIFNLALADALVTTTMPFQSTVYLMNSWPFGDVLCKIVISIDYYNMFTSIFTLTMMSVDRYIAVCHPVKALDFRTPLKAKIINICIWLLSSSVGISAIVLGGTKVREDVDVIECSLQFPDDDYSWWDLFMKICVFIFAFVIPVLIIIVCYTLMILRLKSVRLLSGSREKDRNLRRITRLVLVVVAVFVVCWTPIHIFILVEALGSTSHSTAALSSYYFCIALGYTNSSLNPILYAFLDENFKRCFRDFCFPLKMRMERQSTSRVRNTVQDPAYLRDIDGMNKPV

Data set [2] deals with T2, bovine pancreatic trypsin (Bos taurus, UniProt P00760).
T2 construct: from tissue; host or cells: bovine pancreas
T2 sequence (P00760 24-246): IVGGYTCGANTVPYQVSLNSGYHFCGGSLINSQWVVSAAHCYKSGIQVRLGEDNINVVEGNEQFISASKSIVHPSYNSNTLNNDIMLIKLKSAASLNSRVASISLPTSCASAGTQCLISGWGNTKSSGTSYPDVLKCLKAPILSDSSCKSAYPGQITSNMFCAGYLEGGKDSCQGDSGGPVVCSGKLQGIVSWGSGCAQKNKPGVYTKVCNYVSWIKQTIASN
Briefly: Trypsin stability assay (Table 10). The format is in vitro ADME. Particulars: bovine pancreatic trypsin solution; bovine pancreatic trypsin 2.5 μg/mL, 37° C., One Phase Decay; read-out: Stability (t1/2, mins) Trypsin. The source says: (§5) FIG. 20 is a series of graphs showing the stability of selected peptides in a trypsin (left-hand graphs) and plasma (right-hand graphs) stability assay (data normalised to concentration of each peptide at t=0, determined by LCMS, within each substrate; data analysed using One Phase Decay nonlinear regression in Prism software and each experiment performed in triplicate; mean+/−SEM);
Plasma was collected in house from adult mixed-gender Wistar rats, prepared using 2% EDTA as per standard practice. Peptides were added to rat plasma samples at 37° C. (in a water bath) with final concentrations of 100 uM (1:9 peptide in water:plasma) and a 50 μL sample was immediately taken and precipitated in 150 μL cold acetonitrile (9:1 ACN:water). This sample became the baseline, or t=0 min sample. […] At each time point, the 50 μL of plasma collected was immediately added to cold ACN. Each collected plasma sample in ACN was directly vortexed for 30 seconds and then centrifuged at room temperature (13K rpm, 5 min). 150 μL of the supernatant was taken and directly placed in glass HPLC vials for LCMS analysis.
The protocol for the trypsin stability assay was very similar to the plasma stability assay discussed above. The only difference was the use of a trypsin solution (bovine pancreatic trypsin 2.5 μg/mL in NH4HCO3 buffer, pH approx. 8-8.5, 37° C.) instead of rat plasma. Volumes, times and preparation protocols were exactly as mentioned above.

Data set [3] is described as follows: Plasma stability assay (Table 10). The format is in vitro ADME. Particulars: both sexes, Wistar, rat plasma (EDTA), 37° C., 100 uM peptide, One Phase Decay, read-out: Stability (t1/2, mins) Plasma.
Excerpt: as §5, §4
Plasma was collected in house from adult mixed-gender Wistar rats, prepared using 2% EDTA as per standard practice. Peptides were added to rat plasma samples at 37° C. (in a water bath) with final concentrations of 100 uM (1:9 peptide in water:plasma) and a 50 μL sample was immediately taken and precipitated in 150 μL cold acetonitrile (9:1 ACN:water). This sample became the baseline, or t=0 min sample. Plasma with peptide was immediately returned to the water bath and subsequent 50 μL samples were taken at 5, 10, 15, 30, 60 and 120 min. At each time point, the 50 μL of plasma collected was immediately added to cold ACN. Each collected plasma sample in ACN was directly vortexed for 30 seconds and then centrifuged at room temperature (13K rpm, 5 min). 150 μL of the supernatant was taken and directly placed in glass HPLC vials for LCMS analysis.

Data set [4] deals with T1, KOP. Briefly: Statistics for each peptide | IC50 (nM). On the procedure: Table printed on a drawing sheet, FIG 12
Head of the field: Statistics for each peptide | IC50 (nM)
First copying reader's note: The table stands under a forest plot whose axis is labelled 'Mean IC50 ± 95% CI (nM)'; according to the description the IC50 values were measured in HEK-KOP cells.
Target sequence in this assay (P41145 whole entry, looked up): as the sequence (P41145 whole entry) above

A further data set deals with DOP (Homo sapiens, UniProt P41143). As to the kind of experiment: In vitro cAMP activity at DOP (Table 10). The format is cell-based. To be noted: cAMP inhibition, four-parameter regression. On the procedure:
as §1, §2, §3
In this regard, a different regression analysis method was adopted on the above cAMP experiments. Particularly, a new non-linear regression (four-parameter) was adopted to better account for hill slope, thereby improving the regression fit.

The term EC50 denotes the concentration that produces a half-maximal response. Read a low EC50 as higher potency in that assay. The term IC50 denotes the concentration that gives 50% inhibition. High values mean a need for much substance, low ones inhibition by little substance.

Sequence of DOP (P41143 whole entry): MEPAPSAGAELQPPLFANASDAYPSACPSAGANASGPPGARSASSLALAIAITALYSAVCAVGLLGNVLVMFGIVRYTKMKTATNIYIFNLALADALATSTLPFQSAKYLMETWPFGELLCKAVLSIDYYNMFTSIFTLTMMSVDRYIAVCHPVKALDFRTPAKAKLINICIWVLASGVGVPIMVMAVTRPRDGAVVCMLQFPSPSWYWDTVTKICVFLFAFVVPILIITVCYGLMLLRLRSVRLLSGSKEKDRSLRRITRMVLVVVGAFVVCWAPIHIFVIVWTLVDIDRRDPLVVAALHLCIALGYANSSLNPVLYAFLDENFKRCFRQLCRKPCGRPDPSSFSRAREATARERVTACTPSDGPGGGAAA

Take `CC1(C)CNC(=O)C[C@@H](NC(=O)[C@@H](N)Cc2ccc(O)cc2)C(=O)NCC(=O)N[C@@H](Cc2ccccc2)C(=O)N[C@H](C(=O)N[C@@H](CCCNC(=N)N)C(=O)N[C@@H](CCCNC(=N)N)C(N)=O)CSS1` [DP-7-12, c(Tyr-D(Asp)-Gly-Phe-SSa-Arg-Arg)] (H-Y[dD]GFCRR-NH2; linker 2-5 via NHCH2CMe2S): the “Degradation in cAMP assay buffer” value in “Stability in cAMP buffer” was “no degradation”. In addition, on KOP [1], the EC50 turned out to be 160 nM. Further, in data set [2], the half-life is below 0.01 min. Further, in data set [3], the half-life at 100 uM is 206 min. Also, 4.49 ± 1.59 nM corresponded to half-maximal inhibition against KOP [4] (IC50).
Consider `CC1(C)CNC(=O)C[C@H](C(=O)N[C@@H](CCCNC(=N)N)C(=O)N[C@@H](CCCNC(=N)N)C(N)=O)NC(=O)[C@H](Cc2ccccc2)NC(=O)CNC(=O)[C@@H](NC(=O)[C@@H](N)Cc2ccc(O)cc2)CSS1` [DP-7-11, c(Tyr-SSa-Gly-Phe-D(Asp)-Arg-Arg)], for which the EC50 at KOP [1] and at DOP was above 10000 nM each time.
